Assay results from ChEMBL document CHEMBL1156829 (Proc Natl Acad Sci U S A, 2008).

Key:
[1] = test system: Plasmodium falciparum; experiment: NOVARTIS: Inhibition of Plasmodium falciparum W2 (drug-resistant) proliferation in erythrocyte-based infection assay; format: functional, organism-based; conditions: Plasmodium falciparum, W2; read-out: EC50
[2] = NOVARTIS: Cytotoxicity against human hepatocellular carcinoma cell line (Huh7); format: toxicity, cell-based, Huh-7; conditions: Huh7 cells (hepatocellular carcinoma cell line)
[3] = test system: Plasmodium falciparum; experiment: NOVARTIS: Inhibition of Plasmodium falciparum 3D7 (drug-susceptible) proliferation in erythrocyte-based infection assay; format: functional, organism-based; conditions: Plasmodium falciparum, 3D7

Compound | EC50 [1] [nM] | CC50 [2] [nM] | EC50 [3] [nM]
O=[N+]([O-])c1ccc(C=NNc2nc(Nc3ccccc3)nc(Nc3ccccc3)n2)o1 | 454 | 20700 | 625
COc1ccc(Nc2nc(NN=Cc3cc(Br)c(O)cc3O)nc(Nc3ccc([N+](=O)[O-])cc3)n2)cc1 | 198 | 9580 | 75
COc1ccc(-c2cc(C(F)(F)F)n3ncc(C(=O)Nc4cc(C)ccc4O)c3n2)cc1OC | 2130 | > 100000 | 3350
CO[C@H](C(=O)[C@@H](O)[C@@H](C)O)[C@@H]1Cc2cc3cc(O[C@H]4C[C@@H](O[C@@H]5C[C@@H](O)[C@@H](O)[C@@H](C)O5)[C@@H](O)[C@H](C)O4)c(C)c(O)c3c(O)c2C(=O)[C@H]1O[C@H]1C[C@@H](O[C@H]2C[C@@H](O[C@H]3C[C@](C)(O)[C@@H](O)[C@H](C)O3)[C@H](O)[C@@H](C)O2)[C@H](O)[C@H](C)O1 | 208 | > 10000 | 497
CC(C)(C)NC(=S)Nc1cccc(Cl)c1Cl | 2110 | > 100000 | > 7240
CCN1CCN(c2cc(C)c3cc(NC(=O)c4cncc(Br)c4)ccc3n2)CC1 | 411 | 19400 | 265
CC(C)(C)CC(C)(C)Nc1c(-c2ccccc2OC(=O)c2ccccc2)nc2ccccn12 | 26.8 | > 1260 | 1070
CC(Cc1ccccc1Sc1ccccc1O)N(C)C (centres undefined) | 722 | 34000 | 2040
COc1ccccc1NC1=CC(=NS(=O)(=O)c2ccccc2)c2ccccc2C1=O | 288 | 13600 | 224
CCN(CC)c1cc2oc3cc(=[N+](CC)CC)ccc-3nc2c2ccccc12 | 826 | 39800 | 865
COc1ccc2nc(C)cc(Nc3ccc(N4CCN(C)CC4)cc3)c2c1 | 153 | 7330 | 83.2
Fc1cccc(Nc2nc(NCC3CCCO3)c3ccccc3n2)c1 (centres undefined) | 203 | 9580 | 142
O=C(NN=Cc1ccncc1)c1cc(-c2cccc([N+](=O)[O-])c2)[nH]n1 | 2120 | > 100000 | > 8130
CCOC(=O)c1c(S(=O)(=O)N2CCCC(C(=O)N3CCN(c4cccc(C)c4C)CC3)C2)c(C)n(C)c1C (centres undefined) | 2120 | > 100000 | 923
O=C(Nc1ccc(C2=NCCN2)cc1)Nc1cccc(C(=O)Nc2ccc(C3=NCCN3)cc2)c1 | 211 | > 10000 | 108
CC(C)NC(=O)N1CCN(C(=O)C(Cc2c[nH]c3ccccc23)NC(=O)Nc2cccc(C#N)c2)CC1C (centres undefined) | 211 | > 10000 | 56.7
CCOC(=O)c1ccc(NC(=O)c2cc(-c3ccccc3)nc3ccc(C)cc23)cc1 | 2100 | > 100000 | > 12500

Compound | EC50 [1] [nM] | CC50 [2] [nM] | EC50 [3] [nM]
Cc1ccc(-c2cc3nc4c(c(O)n3n2)CCCC4)cc1 | 2100 | > 100000 | 1600
COc1ccccc1NC1=CC(=NS(=O)(=O)c2ccc(F)cc2)c2ccccc2C1=O | 431 | 20600 | 375
Nc1ncc(Br)cc1S(=O)(=O)NCCC(=O)N1CC=C(c2ccccc2)CC1 | 1020 | 48900 | 384
O=C(NCCc1ccccc1)c1cnc(NCCCn2ccnc2)nc1NCC1CCCCC1 | 208 | > 10000 | 91.4
CCCN1CCC(N2C[C@@H](NCCC3=C(C)CCCC3(C)C)C[C@H]2C(=O)NCC)CC1 | 765 | 35100 | 2340
Cc1c[nH]c(CCNCc2ccc(OCC(O)CN(C)Cc3ccccc3)cc2)n1 (centres undefined) | 1190 | 54800 | 1480
CCc1ccccc1-n1c(C(C)N(C)C(=O)/C=C/c2ccc([N+](=O)[O-])cc2)nc2ccccc2c1=O (centres undefined) | 174 | 8350 | 266
CSC1=NC(=Nc2ccccc2C)C2(CCC(C(C)(C)C)CC2)N1c1ccc(O)cc1 (centres undefined) | 208 | > 10000 | 243
COc1ccc(-c2c[n+](Cc3ccc(Cl)cc3Cl)c3n2CCC3)cc1 | 667 | 31800 | 189
Cc1cccc2cc(C(c3nnnn3C3CCCC3)N3CCCC4(CCCCC4)C3)c(=O)[nH]c12 (centres undefined) | > 209 | > 10000 | > 1250
O=C1[C@H]2Cc3c([nH]c4ccccc34)C(CCc3ccccc3)N2C(=O)CN1CCc1c[nH]c2ccccc12 (some centres undefined) | 208 | > 10000 | 1350
CC1=C(CC(=O)c2ccc(Cl)cc2)C(=O)c2ccccc2C1=O | 1020 | 46600 | 2740
COc1ccc2nc(C)cc(Nc3cccc(Cl)c3)c2c1 | 1100 | 50200 | 371
O=C(Nc1ccc(-c2nc3ccccc3[nH]2)cc1)c1ccccc1Oc1ccccc1 | 2140 | > 100000 | 1580
O=C(Cn1ccc(=NCc2ccccc2)cc1)c1ccc(I)cc1 | 448 | 20800 | 308
COC1=CC(=O)c2c(ccc3cc(O)ccc23)C1=O | 215 | > 10000 | 767
